One assay relates to HT-29 cells. The assay can be described thus: Cell Titer-Glo anti-proliferation, HT-29 cells. To be noted: 3 days, read-out: Anti-proliferative activity HT-29 (IC50 class). Type of assay: cell-based, human. As to the method:
(§1) A. Evaluation of the Anti-Proliferative Effect of Compounds on BxPC3, HT-29 and OVCAR-3 Cells by the Cell Titer-Glo Method
(§2) Compound solutions of different concentration gradients were prepared. […] The cell growth group without compound was used as a positive control (maximum signal control) and the medium was used as a negative control (minimum signal control), while ensuring that the final level of DMSO in each reaction well was 0.2%. After removing the medium from the 384-well plate, 25 μl of the configured compound at different concentrations was transferred into the well plate and the compound and cells were incubated in the cell incubator at 37° C. with 5% CO2 for 3 days.
(§3) The 384-well plates were removed from the cell incubator and allowed to equilibrate for 1 h to room temperature. 25 μl of Cell Titer-Glo assay was added to each well, lysed on a shaker for 2 min and then read out (Luminescence) using a BMG PHERAStar after 10 min incubation. Calculate the inhibition rate from the luminescence signal.
(§4) to calculate the rate of inhibition of the cells by different concentrations of the compounds. The IC50 of the compound on cell activity inhibition was calculated by fitting a log(inhibitor) vs. response-Variable slope model to GraphPad Prism 6. The fitted equation was: Y=Bottom+(Top-Bottom)/(1+10^((Log IC50−X)*HillSlope)), where Y represents the rate of inhibition and X represents the concentration of the known compound after Log.

In a further assay the test system is OVCAR-3 cells. Briefly: Cell Titer-Glo anti-proliferation, OVCAR-3 cells. It counts as cell-based. The note with it: 3 days, read-out: Anti-proliferative activity OVCAR-3 (IC50 class). As to the method:
as §1, §2, §3, §4
In general terms: In ATP-based viability assays light output follows the ATP content of the culture.

The test system of another assay is BxPC3 cells. Briefly: Cell Titer-Glo anti-proliferation, BxPC3 cells. Type of assay: cell-based, human. The note with it: 3 days, read-out: Anti-proliferative activity BxPC3 (IC50 class). As to the method: as §1, §2, §3, §4

pIC50: −log10 of the molar value.

A word on the pIC50: it is the IC50 on a negative log10 scale, so that one unit is a factor of ten. As for `C=CCn1c(=O)c2cnc(Nc3ccc(N4C[C@@H](C)O[C@@H](C)C4)cc3)nc2n1-c1ccc2c(n1)[C@](O)(CC)C1(CC1)C2` (single isomer, unassigned) [Compound 31a], the pIC50 in the assay on HT-29 cells was 5.30 to 5.70; in the assay on OVCAR-3 cells it was 5.00 to 5.30; with BxPC3 cells it was 5.00 to 5.30.

With `C=CCn1c(=O)c2cnc(Nc3ccc(N4CC5CC(C4)N5C4CCC4)cc3)nc2n1-c1ccc2c(n1)C(O)(CC)C1(CC1)C2` (single isomer, unassigned) [Compound 22a], the pIC50 in the assay with HT-29 cells was 6.00 to 7.00; with OVCAR-3 cells, 6.00 to 7.00; in the assay on BxPC3 cells it was 5.70 to 6.00.

Consider `C=CCn1c(=O)c2cnc(Nc3ccc(N4CC5CN(C)CC5C4)cc3)nc2n1-c1ccc2c(n1)C(C)(O)C1(CC2)CC1` (single isomer, unassigned) [Compound 43a], for which the pIC50 in the assay with HT-29 cells, with OVCAR-3 cells and in the assay with BxPC3 cells was 6.00 to 7.00 in each case.

Regarding `C=CCn1c(=O)c2cnc(Nc3ccc(N4CC5CC(C4)N5CCF)cc3)nc2n1-c1ccc2c(n1)[C@](C)(O)C1(CC2)CC1` (single isomer, unassigned) [Compound 59a], the pIC50 with HT-29 cells, with OVCAR-3 cells and in the assay on BxPC3 cells was 6.00 to 7.00 each time.

As for `C=CCn1c(=O)c2cnc(Nc3ccc(N4C[C@H]5CN(C)C[C@H]5C4)cc3)nc2n1-c1ccc2c(n1)[C@@](C)(O)C1(CC2)CC1` (single isomer, unassigned) [Compound 43b], the pIC50 in the assay with HT-29 cells, in the assay on OVCAR-3 cells and in the assay on BxPC3 cells was 6.00 to 7.00 throughout.

For the compound `C=CCn1c(=O)c2cnc(Nc3ccc(N4CCN(C)CC4)cc3)nc2n1-c1ccc2c(n1)C(O)(CC)C1(CC1)C2` (racemic) [Compound 18], the pIC50 in the assay on HT-29 cells is 6.00 to 7.00; in the assay with OVCAR-3 cells, 5.30 to 5.70; with BxPC3 cells, 5.30 to 5.70.

For the compound `C=CCn1c(=O)c2cnc(Nc3ccc(N4CC5CC(C4)N5C)cc3)nc2n1-c1ccc2c(n1)[C@H](O)C1(CC2)CC1` (single isomer, unassigned) [Compound 34b], the pIC50 with HT-29 cells was 6.00 to 7.00; with OVCAR-3 cells, 5.70 to 6.00; in the assay on BxPC3 cells, 6.00 to 7.00.

With `C=CCn1c(=O)c2cnc(Nc3ccc(N4CCC(N(C)C)CC4)cc3)nc2n1-c1ccc2c(n1)C(O)C1(CC2)CC1` (stereo not drawn) [Compound 66b], the figures for the pIC50 with HT-29 cells, in the assay on OVCAR-3 cells and in the assay on BxPC3 cells were 6.00 to 7.00, 5.70 to 6.00 and 6.00 to 7.00, respectively.

Regarding `C=CCn1c(=O)c2cnc(Nc3ccc(N4C[C@@H]5C[C@H]4CN5C)cc3)nc2n1-c1ccc2c(n1)[C@](C)(O)C1(CC2)CC1` (single isomer, unassigned) [Compound 45b], the pIC50 in the assay with HT-29 cells, with OVCAR-3 cells and with BxPC3 cells was 5.70 to 6.00 in each case.

In the case of `C=CCn1c(=O)c2cnc(Nc3ccc(N4CCN(C)CC4)cc3)nc2n1-c1ccc2c(n1)C(C)(O)C1(CC1)C2` (single isomer, unassigned) [Compound 3a], the negative-log IC50 (pIC50) with HT-29 cells, in the assay with OVCAR-3 cells and in the assay on BxPC3 cells was 5.70 to 6.00 each time.

For `C=CCn1c(=O)c2cnc(Nc3ccc(N4CCC5(CCN(C)CC5)CC4)c(F)c3)nc2n1-c1ccc2c(n1)C(O)C1(CC2)CC1` (single isomer, unassigned) [Compound 62a], the pIC50 in the assay on HT-29 cells is 6.00 to 7.00; with OVCAR-3 cells, 5.70 to 6.00; in the assay on BxPC3 cells it was 5.70 to 6.00.

Consider `C=CCn1c(=O)c2cnc(Nc3ccc(N4CCN(C(C)C)CC4)cc3)nc2n1-c1ccc2c(n1)C(O)C1(CC2)CC1` (single isomer, unassigned) [Compound 57a], for which the figures for the pIC50 with HT-29 cells, in the assay on OVCAR-3 cells and with BxPC3 cells were 5.70 to 6.00, 5.30 to 5.70 and 5.30 to 5.70, respectively.

Turning to `C=CCn1c(=O)c2cnc(Nc3ccc(N4CCN(C)CC4)c(C)c3)nc2n1-c1ccc2c(n1)C(C)(O)C1(CC1)C2` (racemic) [Compound 10], the pIC50 is 5.70 to 6.00 with HT-29 cells, 6.00 to 7.00 with OVCAR-3 cells and 5.30 to 5.70 in the assay with BxPC3 cells.

For the compound `C=CCn1c(=O)c2cnc(Nc3ccc(N4CC5CN(C)CC5C4)cc3)nc2n1-c1ccc2c(n1)C(O)(C(F)(F)F)C1(CC2)CC1` (single isomer, unassigned) [Compound 58a], the pIC50 in the assay on HT-29 cells is 6.00 to 7.00; in the assay on OVCAR-3 cells, 5.30 to 5.70; in the assay with BxPC3 cells, 5.70 to 6.00.

`C=CCn1c(=O)c2cnc(Nc3ccc(N4CCC(N5CCN(C)CC5)C(F)C4)cc3)nc2n1-c1ccc2c(n1)C(C)(O)C1(CC1)C2` (mixture of isomers) [Compound 14]: the pIC50 in the assay on HT-29 cells is 6.00 to 7.00; with OVCAR-3 cells it was 6.00 to 7.00; with BxPC3 cells, 5.70 to 6.00.

`C=CCn1c(=O)c2cnc(Nc3ccc(N4CC5CC(C4)N5C(C)C)cc3)nc2n1-c1ccc2c(n1)[C@@](C)(O)C1(CC2)CC1` (single isomer, unassigned) [Compound 35b]: the pIC50 with HT-29 cells, in the assay on OVCAR-3 cells and in the assay with BxPC3 cells was 6.00 to 7.00 throughout.

Consider `C=CCn1c(=O)c2cnc(Nc3ccc(N4CC5CC(C4)N5C)cc3)nc2n1-c1ccc2c(n1)C(O)C1(CC2)CC1` (racemic) [Compound 34], for which the pIC50 in the assay with HT-29 cells is 6.00 to 7.00; in the assay on OVCAR-3 cells it was 5.70 to 6.00; in the assay with BxPC3 cells, 5.70 to 6.00.

With `C=CCn1c(=O)c2cnc(Nc3ccc(N4CC5CC(C4)N5C)cc3)nc2n1-c1ccc2c(n1)[C@@](O)(CC)C1(CC2)CC1` (single isomer, unassigned) [Compound 64b], the negative-log IC50 (pIC50) in the assay with HT-29 cells, in the assay with OVCAR-3 cells and with BxPC3 cells was 6.00 to 7.00 each time.

As for `C=CCn1c(=O)c2cnc(Nc3ccc(N4CCC5(CCN(C)CC5)CC4)cc3)nc2n1-c1ccc2c(n1)C(O)(CC)C1(CC2)CC1` (stereo not drawn) [Compound 69b], the negative-log IC50 (pIC50) in the assay with HT-29 cells, with OVCAR-3 cells and with BxPC3 cells was 5.70 to 6.00 each time.

Regarding `C=CCn1c(=O)c2cnc(Nc3ccc(N4CCN(C)C(C)C4)cc3)nc2n1-c1ccc2c(n1)C(O)C1(CC2)CC1` (stereo not drawn) [Compound 68b], the pIC50 in the assay on HT-29 cells, with OVCAR-3 cells and in the assay with BxPC3 cells was 6.00 to 7.00 throughout.

As to `C=CCn1c(=O)c2cnc(Nc3ccc(N4CCC(N(C)C)CC4)cc3)nc2n1-c1ccc2c(n1)C(O)(C(F)(F)F)C1(CC2)CC1` (stereo not drawn) [Compound 54b], the negative logarithm of the IC50 (pIC50) in the assay with HT-29 cells, with OVCAR-3 cells and with BxPC3 cells was 6.00 to 7.00 each time.

On to `C=CCn1c(=O)c2cnc(Nc3ccc(N4CCC(N(C)C)C(F)C4)cc3)nc2n1-c1ccc2c(n1)C(C)(O)C1(CC1)C2` (single isomer, unassigned) [Compound 20a], for which the pIC50 with HT-29 cells, in the assay on OVCAR-3 cells and in the assay on BxPC3 cells was 5.70 to 6.00 throughout.

With `C=CCn1c(=O)c2cnc(Nc3ccc(N4CC5CC(C4)N5C(C)C)cc3)nc2n1-c1ccc2c(n1)C(O)C1(CC2)CC1` (single isomer, unassigned) [Compound 39a], the negative logarithm of the IC50 (pIC50) in the assay on HT-29 cells, in the assay with OVCAR-3 cells and with BxPC3 cells was 6.00 to 7.00 each time.

In the case of `C=CCn1c(=O)c2cnc(Nc3ccc(N4CC5CC(C4)N5C(C)C)cc3)nc2n1-c1ccc2c(n1)[C@](C)(O)C1(CC2)CC1` (single isomer, unassigned) [Compound 35a], the negative logarithm of the IC50 (pIC50) in the assay on HT-29 cells, with OVCAR-3 cells and in the assay with BxPC3 cells was 6.00 to 7.00 each time.

As to `C=CCn1c(=O)c2cnc(Nc3ccc(N4CCC(N(C)C)CC4)c(C)c3)nc2n1-c1ccc2c(n1)C(C)(O)C1(CC2)CC1` (stereo not drawn) [Compound 52b], the pIC50 in the assay on HT-29 cells, in the assay on OVCAR-3 cells and in the assay with BxPC3 cells was 6.00 to 7.00 throughout.

As to `C=CCn1c(=O)c2cnc(Nc3ccc(N4CCN(C)CC4)cc3)nc2n1-c1ccc2c(n1)C(O)(C(F)(F)F)C1(CC2)CC1` (stereo not drawn) [Compound 53b], the pIC50 in the assay on HT-29 cells was 6.00 to 7.00; in the assay with OVCAR-3 cells, 5.70 to 6.00; in the assay with BxPC3 cells, 6.00 to 7.00.

With `C=CCn1c(=O)c2cnc(Nc3ccc(N4CCC5(CCN(C)CC5)CC4)c(F)c3)nc2n1-c1ccc2c(n1)C(O)C1(CC2)CC1` (stereo not drawn) [Compound 62b], the pIC50 in the assay on HT-29 cells, in the assay on OVCAR-3 cells and in the assay on BxPC3 cells was 6.00 to 7.00 in each case.

Turning to `C=CCn1c(=O)c2cnc(Nc3ccc(N4CCC(N(C)C)CC4)c(C)c3)nc2n1-c1ccc2c(n1)[C@](C)(O)C1(CC1)C2` (single isomer, unassigned) [Compound 42a], the pIC50 in the assay on HT-29 cells, in the assay with OVCAR-3 cells and in the assay on BxPC3 cells was 6.00 to 7.00 each time.

`C=CCn1c(=O)c2cnc(Nc3ccc(N4CC5CC(C4)N5CCF)cc3)nc2n1-c1ccc2c(n1)C(C)(O)C1(CC2)CC1` (stereo not drawn) [Compound 59b]: the pIC50 in the assay on HT-29 cells is 6.00 to 7.00; in the assay on OVCAR-3 cells it was 5.70 to 6.00; in the assay with BxPC3 cells, 5.70 to 6.00.

With `C=CCn1c(=O)c2cnc(Nc3ccc(N4CC5CC(C4)N5C)cc3)nc2n1-c1ccc2c(n1)C(C)(O)C1(CC1)C2` (stereo not drawn) [Compound 13], the pIC50 with HT-29 cells, with OVCAR-3 cells and in the assay with BxPC3 cells was 6.00 to 7.00 throughout.

As for `C=CCn1c(=O)c2cnc(Nc3ccc(N4CCC(N(C)C)CC4)cc3)nc2n1-c1ccc2c(n1)C(C)(O)C1(CC1)C2` (racemic) [Compound 12], the pIC50 in the assay on HT-29 cells is 6.00 to 7.00; in the assay on OVCAR-3 cells it was 6.00 to 7.00; in the assay on BxPC3 cells, 5.30 to 5.70.

For `C=CCn1c(=O)c2cnc(Nc3ccc(N4CCN(C)CC4)cc3)nc2n1-c1ccc2c(n1)[C@](O)(C(F)(F)F)C1(CC2)CC1` (single isomer, unassigned) [Compound 53a], the results for the pIC50 in the assay with HT-29 cells, in the assay with OVCAR-3 cells and in the assay with BxPC3 cells were 5.70 to 6.00, 5.30 to 5.70 and 5.30 to 5.70, respectively.

The values are drawn from patent US20250304587A1, “WEE1 INHIBITOR, PREPARATION THEREFOR AND USE THEREOF” (JIANGSU TASLY DIYI PHARMACEUTICAL CO., LTD., priority 2022, published 2025).
